Assay results taken from ChEMBL document CHEMBL3044967, “Synthesis, biological evaluation, and molecular modeling studies of new 1,3,4-oxadiazole- and 1,3,4-thiadiazole-substituted 4-oxo-4H-pyrido[1,2-a]pyrimidines as anti-HIV-1 agents” (Med Chem Res, 2013).

Experiments:
[1] = system: Human immunodeficiency virus 1; assay: Antiviral activity against Human immunodeficiency virus 1 NL4-3 infected human HeLa cells assessed as decrease in P24 expression at 100 uM after 72 hr by single cycle replication assay; format: functional; conditions: Human immunodeficiency virus 1, NL4-3, HeLa
[2] = Cytotoxicity against Homo sapiens (human) HeLa cells infected with HIV-1 NL4-3 assessed as cell viability at 100 uM by XTT assay; format: cell-based; conditions: read-out: Activity

| SMILES | inhibition at 100 µM [1] [%] | viability at 100 µM [2] [%] |
| --- | --- | --- |
| O=c1c(-c2nnc(-c3ccc(Cl)cc3)o2)cnc2ccccn12 | 26 | 94 |
| Nc1nnc(-c2cnc3ccccn3c2=O)o1 | – | 96 |
| O=c1c(-c2nnc(S)o2)cnc2ccccn12 | 11 | 100 |
| O=c1c(-c2nnc(-c3ccccc3)o2)cnc2ccccn12 | – | 98 |
| O=c1c(-c2nnc(-c3ccc(F)cc3)o2)cnc2ccccn12 | 18 | 100 |
| COc1ccc(-c2nnc(-c3cnc4ccccn4c3=O)o2)cc1 | – | 100 |
| Cc1ccc(-c2nnc(-c3cnc4ccccn4c3=O)o2)cc1 | 29 | 94 |
| O=c1c(-c2nnc(-c3ccccc3)s2)cnc2ccccn12 | 33 | 100 |
| O=c1c(-c2nnc(-c3ccc(F)cc3)s2)cnc2ccccn12 | 48 | 92 |
| O=c1c(-c2nnc(-c3ccc(Cl)cc3)s2)cnc2ccccn12 | 39 | 95 |
| COc1ccc(-c2nnc(-c3cnc4ccccn4c3=O)s2)cc1 | 28 | 97 |
| Cc1ccc(-c2nnc(-c3cnc4ccccn4c3=O)s2)cc1 | 51 | 93 |
| Cc1cn([C@H]2C[C@H](N=[N+]=[N-])[C@@H](CO)O2)c(=O)[nH]c1=O [ZIDOVUDINE] | 100 | 100 |
